These results are taken from patent US4623662A, “Antiatherosclerotic ureas and thioureas” (American Cyanamid Company, priority 1985, dated 1986).

In general, inhibition refers to the relative decrease from the control value, in per cent. Usually IC50 stands for the midpoint of a concentration-inhibition curve.

Where two headings read alike, the source gives them in different places.

In test [1] the target is T1, fatty acyl CoA: cholesterol acyl transferase (ACAT) (Rattus norvegicus, UniProt O70536).
T1 construct: The supernatant, containing the microsomal fraction, served as the source of the cholesterol-esterifying enzyme; from tissue; host or cells: rat adrenals, supernatant of 1,000 x g centrifugation containing the microsomal fraction
T1 sequence (O70536 1-545): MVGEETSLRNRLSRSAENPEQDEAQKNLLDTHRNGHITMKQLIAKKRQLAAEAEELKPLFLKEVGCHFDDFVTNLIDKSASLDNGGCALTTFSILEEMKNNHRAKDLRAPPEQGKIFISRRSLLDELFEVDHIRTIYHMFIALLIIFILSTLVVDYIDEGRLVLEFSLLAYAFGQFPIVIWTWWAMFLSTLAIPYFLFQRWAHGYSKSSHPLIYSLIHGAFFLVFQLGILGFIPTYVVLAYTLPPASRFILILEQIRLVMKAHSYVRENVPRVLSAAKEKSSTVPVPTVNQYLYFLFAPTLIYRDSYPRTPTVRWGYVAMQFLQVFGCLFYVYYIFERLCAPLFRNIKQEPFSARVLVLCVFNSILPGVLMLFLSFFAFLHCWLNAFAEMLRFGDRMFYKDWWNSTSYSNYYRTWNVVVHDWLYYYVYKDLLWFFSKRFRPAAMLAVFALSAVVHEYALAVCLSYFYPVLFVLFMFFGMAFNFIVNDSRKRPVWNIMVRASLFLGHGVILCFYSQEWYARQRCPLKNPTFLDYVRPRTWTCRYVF
The experiment in a line: Inhibition of fatty acyl CoA:cholesterol acyl transferase (ACAT), rat adrenal enzyme. Format: biochemical. To be noted: for IC50: several concentrations. In a few lines:
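Enzyme source was the microsomal supernatant of rat adrenal homogenate (0.2M potassium phosphate, pH 7.4) with BSA, preincubated with compound (5.2 μg/ml final for single-point) for 10 min at 37° C. Then [14C]oleoyl CoA added, 10 min at 37° C. TLC-separated cholesteryl ester was counted; percent inhibition versus control, IC50 from several concentrations.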

In the next test the test system is cholesterol absorption. The test is described as follows: Inhibition of cholesterol absorption in rats fed 1% cholesterol:0.5% cholic acid diet. It is filed as in vivo, male Sprague-Dawley rats. To be noted: po, 336 h, rat, 2 weeks; for response vs control in vivo at 0.03 %: dose .03% of the diet; for response vs control in vivo at 0.01 %: dose .01% of the diet. In short, it runs like this:
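Male Sprague-Dawley rats (150-170 g) fed 1% cholesterol:0.5% cholic acid diet for 2 weeks with compound at 0.001, 0.003, 0.01 or 0.03% of diet. Serum cholesterol measured enzymatically; liver cholesterol from saponified large-lobe sample after petroleum ether extraction. Liver and serum sterol expressed as percent of untreated controls.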

Setting [2] is: read-out: LS (liver sterol), percentage of control values.
Setting [3] is: read-out: SS (serum sterol), percentage of control values.
[4] abbreviates: rat adrenal ACAT, final concentration 5.2 μg/ml, read-out: % Inhibition.

For the compound `CCCCCOc1ccc(CN(Cc2ccc(CCCCC)cc2)C(=O)Nc2ccc(F)cc2F)cc1` [1-(4-n-Pentylbenzyl)-1-(4-n-pentyloxybenzyl)-3-(2,4-difluorophenyl)urea], the inhibition at 5.2 µg/mL in test [1] came to 90%. Also, the values for the response vs control in vivo at 0.03 % in the test on cholesterol absorption (setting [2]) and with cholesterol absorption (setting [3]) were 67% and 55%, respectively.
Take `CCCCCCCN(Cc1ccco1)C(=O)Nc1c(Cl)cc(Cl)cc1Cl` [1-(2-Furanylmethyl)-1-heptyl-3-(2,4,6-trichlorophenyl)urea]: the inhibition at 5.2 µg/mL in test [1] (setting [4]) is 96.1%. Further, the results for the response vs control in vivo at 0.03 % in the test on cholesterol absorption (setting [2]) and in the test with cholesterol absorption (setting [3]) were 34% and 37%, respectively.
For `O=C(Nc1c(Cl)cc(Cl)cc1Cl)N(Cc1ccccc1)C(Cc1ccccc1)c1ccc(OCc2ccccc2)cc1` (stereo not drawn) [1-Benzyl-1-[2-phenyl-1-(4-benzyloxyphenyl)ethyl]-3-(2,4,6-trichlorophenyl)urea], in that order: 95%, 64% and 95%.
For `CCCCCCCN(Cc1ccc(OCCCC)cc1)C(=O)Nc1ccc(F)cc1F` [1-(n-Heptyl)-1-(4-n-butoxybenzyl)-3-(2,4-difluorophenyl)urea], in test [1] (setting [4]), the inhibition at 5.2 µg/mL came to 82.7%. The results for the response vs control in vivo at 0.03 % in the test with cholesterol absorption (setting [2]) and with cholesterol absorption (setting [3]) were 25% and 63%, respectively.
For `O=C(Nc1cccc(C(F)(F)F)c1)N(Cc1ccc(Cl)cc1)Cc1cccc2ccccc12` [1-(4-Chlorobenzyl)-1-(1-naphthylmethyl)-3-(3-trifluoromethylphenyl)urea], in that order: 80%, 92% and 87%.
Taken in the same sequence, the figures for `O=C(Nc1ccc(F)cc1F)N(Cc1ccc(Cl)cc1)Cc1cccc2ccccc12` [1-(4-Chlorobenzyl)-1-(1-naphthylmethyl)-3-(2,4-difluorophenyl)urea] were 84%, 30% and 45%.
Taken in the same sequence, the figures for `CCCCCCCN(Cc1ccc(OCCCC)cc1)C(=O)Nc1ccc(Cl)cc1Cl` [1-(n-Heptyl)-(4-n-butoxybenzyl)-3-(2,4-dichlorophenyl)urea] were 79.9%, 50% and 68%.
Consider `Cc1ccc(NC(=O)N(Cc2ccccc2)C(Cc2ccccc2)c2ccccc2)c(C)c1` (stereo not drawn) [1-Benzyl-1-(1,2-diphenylethyl)-3-(2,4-dimethylphenyl)urea], for which, in test [1] (setting [4]), the inhibition at 5.2 µg/mL worked out at 95%. Also, the figures for the response vs control in vivo at 0.03 % with cholesterol absorption (setting [2]) and in the test on cholesterol absorption (setting [3]) were 63% and 52%, respectively.
In test [1] (rat adrenal ACAT), `CCCCCCCN(Cc1ccc(C(C)C)cc1)C(=O)Nc1ccc(F)cc1F` [1-(n-Heptyl)-1-[4-(isopropyl)benzyl]-3-(2,4-difluorophenyl)urea] registered an IC50 of 1170 nM. Besides, the response vs control in vivo at 0.01 % with cholesterol absorption (setting [2]) is 64%; with cholesterol absorption (setting [3]), 77%.
Compound `CCCCCCCN(Cc1ccc(CCCCCl)cc1)C(=O)Nc1c(C)cc(Cl)cc1C` [1-(n-Heptyl)-1-[4-(4-chlorobutyl)benzyl]-3-(4-chloro-2,6-dimethylphenyl)urea] came in with an IC50 in test [1] (rat adrenal ACAT) of 110 nM. For the same compound, the figures for the response vs control in vivo at 0.03 % with cholesterol absorption (setting [2]) and in the test on cholesterol absorption (setting [3]) were 18% and 19%, respectively.
Turning to `CCCCOc1ccc(CN(Cc2ccccc2)C(=O)Nc2ccc(C)cc2C)cc1` [1-Benzyl-1-(4-butyloxybenzyl)-3-(2,4-dimethylphenyl)urea], in test [1] (setting [4]), the inhibition at 5.2 µg/mL amounted to 91.7%. For the same compound, the response vs control in vivo at 0.03 % was 15% in the test on cholesterol absorption (setting [2]) and 48% in the test on cholesterol absorption (setting [3]).
As to `CCCCCCCN(Cc1ccc(C(C)C)cc1)C(=O)Nc1c(C)cc(Cl)cc1C` [1-(n-Heptyl)-1-[4-(isopropyl)benzyl]-3-(4-chloro-2,6-dimethylphenyl)urea], the IC50 in test [1] (rat adrenal ACAT) came to 200 nM. Moreover, the figures for the response vs control in vivo at 0.01 % in the test with cholesterol absorption (setting [2]) and with cholesterol absorption (setting [3]) were 20% and 35%, respectively.
Take `CCCCCCCN(Cc1ccc(CCCCO)cc1)C(=O)Nc1c(C)cc(Cl)cc1C` [1-(n-Heptyl)-1-[4-(4-hydroxybutyl)benzyl]-3-(4-chloro-2,6-dimethylphenyl)urea]: 820 nM corresponded to half-maximal inhibition in test [1] (rat adrenal ACAT) (IC50). Besides, the results for the response vs control in vivo at 0.01 % in the test on cholesterol absorption (setting [2]) and with cholesterol absorption (setting [3]) were 26% and 24%, respectively.
Turning to `CCCCCCCN(Cc1ccc(CCCC)cc1)C(=O)Nc1cccc(C)c1` [1-(n-Heptyl)-1-(4-n-butylbenzyl)-3-(3-methylphenyl)urea], in test [1] (setting [4]), the inhibition at 5.2 µg/mL amounted to 93.8%. Moreover, the response vs control in vivo at 0.03 % turned out to be 42% in the test on cholesterol absorption (setting [2]) and 49% with cholesterol absorption (setting [3]).
In test [1], `Cc1cc(Cl)ccc1NC(=O)N(CCC(C)(C)C)Cc1ccc(Cl)cc1` [1-(3,3-Dimethylbutyl)-1-(4-chlorobenzyl)-3-(4-chloro-2-methylphenyl)urea] returned an inhibition at 5.2 µg/mL of 90%. Moreover, the results for the response vs control in vivo at 0.03 % in the test with cholesterol absorption (setting [2]) and in the test on cholesterol absorption (setting [3]) were 60% and 50%, respectively.
Consider `CCCCc1ccc(CN(Cc2ccccc2)C(=O)Nc2ccc(CCCC)cc2)cc1` [1-Benzyl-1-(4-n-butylbenzyl)-3-(4-n-butylphenyl)urea], for which the inhibition at 5.2 µg/mL in test [1] (setting [4]) worked out at 92%. Moreover, the response vs control in vivo at 0.03 % came to 61% in the test on cholesterol absorption (setting [2]) and 53% in the test with cholesterol absorption (setting [3]).
The compound `CC(C)CCN(Cc1ccc(C(C)C)cc1)C(=O)Nc1c(F)cc(F)cc1F` [1-(Isopentyl)-1-[4-(isopropyl)benzyl]-3-(2,4,6-trifluorophenyl)urea] displayed a concentration for half-maximal inhibition (IC50) in test [1] (rat adrenal ACAT) of 530 nM. Further, the response vs control in vivo at 0.03 % with cholesterol absorption (setting [2]) amounted to 35%; with cholesterol absorption (setting [3]) it was 31%.
For the compound `O=C(Nc1ccc(Cl)cc1Cl)N(Cc1ccc(Cl)cc1)Cc1cccc2ccccc12` [1-(4-Chlorobenzyl)-1-(1-naphthylmethyl)-3-(2,4-dichlorophenyl)urea], the inhibition at 5.2 µg/mL in test [1] (setting [4]) turned out to be 92%. Besides, the response vs control in vivo at 0.03 % in the test with cholesterol absorption (setting [2]) worked out at 48%; in the test on cholesterol absorption (setting [3]), 50%.
With `CCCCOc1ccc(CN(CCC(C)(C)C)C(=O)Nc2c(Cl)cc(Cl)cc2Cl)cc1` [1-(3,3-Dimethylbutyl)-1-[4-(n-butoxy)benzyl]-3-(2,4,6-trichlorophenyl)urea], testing at 5.2 µg/mL in test [1] gave an inhibition of 90%. Moreover, the response vs control in vivo at 0.03 % came to 20% with cholesterol absorption (setting [2]) and 52% in the test with cholesterol absorption (setting [3]).
For `CCCCc1ccc(CN(CCCCC[Si](C)(C)C)C(=O)Nc2ccc(F)cc2F)cc1` [1-[(4-Butylphenyl)methyl]-3-(2,4-difluorophenyl)-1-[5-(trimethylsilyl)pentyl]urea], the inhibition at 5.2 µg/mL in test [1] was determined as 90%. The values for the response vs control in vivo at 0.03 % in the test on cholesterol absorption (setting [2]) and with cholesterol absorption (setting [3]) were 57% and 62%, respectively.
`CCCCc1ccc(CN(CCCCCCC#N)C(=O)Nc2ccc(Cl)cc2C)cc1` [1-[(4-Butylphenyl)methyl]-3-(4-chloro-2-methylphenyl)-1-(6-cyanohexyl)urea] had an inhibition at 5.2 µg/mL in test [1] of 90%. The response vs control in vivo at 0.03 % amounted to 50% in the test on cholesterol absorption (setting [2]) and 48% in the test on cholesterol absorption (setting [3]).
`CCCCc1ccc(CN(CCC(C)(C)C)C(=O)Nc2c(Cl)cc(Cl)cc2Cl)cc1` [1-(3,3-Dimethylbutyl)-1-[4-(n-butyl)benzyl]-3-(2,4,6-trichlorophenyl)urea] gave an inhibition at 5.2 µg/mL in test [1] of 90%. The results for the response vs control in vivo at 0.03 % with cholesterol absorption (setting [2]) and with cholesterol absorption (setting [3]) were 13% and 37%, respectively.
